Tests used:
N2a cells = experiment: Tandem fluorescent mRFP-GFP-LC3 (Tf-LC3) autophagosome maturation in N2a cells; type: cell-based, mouse; details: 25 μM, 24 hours
Source text: Therefore, red-only puncta indicates the normal maturation of the autolysosomes. In contrast, co-localization of GFP and RFP puncta indicates impaired fusion between autophagosomes and lysosomes or disruption of lysosome function. Here, this system is utilized and establishes a pattern of GFP and mRFP fluorescence changes in N2a cells after Cory B treatment. Cells are fixed in 4% paraformaldehyde and analyzed under a confocal microscope. […] However, the number of GFP puncta is much lower as compared to mRFP puncta, indicating efficient autophagosome-lysosome maturation and degradation. In cells treated with CQ, there is similar accumulation of GFP and mRFP puncta due to lysosome inhibition. In cells treated with both CQ and Cory B, the number of GFP and mRFP puncta are even more than in the CQ-alone group, but GFP and mRFP puncta numbers are very similar (FIG. 2E, F). The observations further confirm that enhancement of GFP- and RFP-LC3-II puncta expression by Cory B are achieved via autophagy induction flux in neuronal cells rather than inhibiting lysosomal degradation of LC3-II. Results were presented as means±SEM of one representative experiment from three independent repeats (**p<0.01 compare the difference between GFP and RFP puncta in each group, two-way ANOVA for multiple comparison and Bonferroni test as post hoc test).

Beclin-1 = Beclin-1 expression and Beclin 1 siRNA depletion in N2a cells; type: cell-based, mouse
Description: (§1) FIG. 7: Western blot analysis of expression level of phosphorylated mTOR (p-mTOR) or its substrate P70S6K (p-P70S6K) in N2a cells with treatment of 25 μM Cory B or 0.2 μM rapamycin for 6 hours (FIG. 7A); western blot analysis of Beclin 1 expression in N2a cells with non-target or Beclin 1-specific siRNA treatments followed by Cory B (FIG. 7B)
To elucidate the molecular mechanism of Cory B action, the classic autophagy controlling pathway, the mTOR pathway is first examined. […] Several other pathways reported to be involved in the activation of autophagy, including AKT, AMPK, MEK/ERK, JNK, and ER stress pathways, and calcium signaling pathway (data not shown), are also tested.

Inducible PC12 cells = experiment: HMGB1 translocation and autophagy in alpha-synuclein inducible PC12 cells; type: cell-based, rat; details: α-syn overexpression induced by Dox, 24 h
Description: Inducible PC12 cells are treated with […] Dox for 24 h in the presence of Corynoxine B (Cory B), rapamycin (Rap), wortmannin (Wort) or chloroquine (CQ). The expressions of induced HA-α-syn, endogenous LC3-II and Beclin-1 are determined by Western blotting (FIG. 10A). The expression of HMGB1 in the cytosolic and nuclear fractions are determined by Western blotting (FIG. 10B). b-actin and Lamin B1 are used as relative loading controls. Data are presented as the mean±SD from three independent experiments. ^#p<0.05 vs. un-induced control; *p<0.05 vs. Dox treatment; **p<0.05 vs. Dox+Cory B treatment.

[1] = test system: WT and A53T α-syn in differentiated DA neurons; experiment: α-syn degradation in human dopaminergic neurons differentiated from embryonic stem cells; type: cell-based
Source text: Differentiation of stem cells into dopaminergic neurons. The human embryonic stem (ES) cells were differentiated into dopaminergic neurons according to a previously described protocol with minor changes. Initially, ES cells were digested with dispase (17105041, Invitrogen,) and broken into smaller clusters to form the embryonic bodies. The next day, undifferentiated floating ES cell aggregates were transferred to a new flask. The cells were maintained in DMEM/F12 medium (11320082, Invitrogen) with half medium changed every day for 3 days. On the fourth day, ES cell aggregates were collected by centrifuge and re-suspended in NSM (DMEM/F12 containing 1% N2 supplement (17502048, Invitrogen), 1 μg/ml Heparin (H3149, Sigma), 200 μM NEAA (11140050, Invitrogen) and 2 mM L-glutamine (25030081, Invitrogen)) supplemented with 10% FBS. Embryonic stem cells were transferred to a new flask and medium was changed every other day. Three days later, cell aggregates were transferred to 6-well-plates. The next day, the FBS containing media were replaced with NSM containing 20 ng/ml FGF8 (PHG0184, Invitrogen) and 100 ng/ml SHH (PMC2095, Invitrogen), media were changed every other day. Five days later, the colonies in the dish were detached by pipetting gently with a P1000 pipette. […]

[2] = test system: phosphorylated mTOR and P70S6K; experiment: Western blot of mTOR pathway and other autophagy pathways in N2a cells; type: cell-based, mouse
Description: as §1
To elucidate the molecular mechanism of Cory B action, the classic autophagy controlling pathway, the mTOR pathway is first examined.

Structure (SMILES): CC[C@@H]1CN2CC[C@]3(C(=O)Nc4ccccc43)C2C[C@@H]1C(=COC)C(=O)OC (some centres unmarked) [Cory B, Corynoxine B]
- GFP and mRFP puncta formation (Tf-LC3) (N2a cells): induces massive GFP and mRFP puncta formation
- number of GFP puncta compared to mRFP puncta (N2a cells): much lower
- expression of Beclin-1 (Beclin-1): does not affect the expression of Beclin-1
- Cory B-induced autophagy under Beclin-1 siRNA treatment (Beclin-1; Beclin 1-specific siRNA): completely blocks
- cytosolic translocation of HMGB1 and autophagy (Inducible PC12 cells): restored the deficient cytosolic translocation of HMGB1 and autophagy
- WT and A53T α-syn levels [1]: dramatically decreases both WT and A53T α-syn levels
- phosphorylated mTOR and p-P70S6K levels ([2]; 25 μM Cory B or 0.2 μM rapamycin, 6 hours): neither phosphorylated mTOR nor its substrate P70S6K are affected
- AKT, AMPK, MEK/ERK, JNK, ER stress and calcium signaling pathways ([2]; data not shown): none of the above mentioned pathways are altered

— patent US9604987B2, “Synthesis of autophagy inducing compound and the uses thereof” (Hong Kong Baptist University, priority 2012, dated 2017)
